Test results reported in patent publication US8101792B2, “Compounds isolated from Antrodia cinnamomea and use thereof” (Simpson Biotech Co., Ltd., priority 2007, dated 2012).
Read-outs that look alike come from different tables or passages of the source.

Legend:
[1] = Identification of metabolites in rat feces, bile, plasma and urine by LC/MS-MS after administration of Antrodin C; format: in vivo
Description: The metabolites in feces, bile and plasma were analyzed by LC/MS-MS. The LC/MS-MS equipment comprised a column containing TSK gel ODS-80 Ts (particle size, 5 μm; 4.6×150 mm i.d., Tosoh Co., Tokyo, Japan). Samples were eluted through the column with 0.1% AcOH and acetonitrile (35:65) at a flow rate of 1 ml/min at 30° C. The standard negative ion mode was selected under the following conditions: full scan range, 50-800 m/z; scan resolution, 13000 m/z/sec; nebulizer, 50.0 psi; dry gas, 10.0 l/min; dry temperature, 360° C. Full scanning in the region of m/z 50 to 600 assigned several peaks to Antrodin C and the metabolites in the […] when compared with those of blank samples (FIG. 3). […] Comparing to standard materials and synthesized compounds, the peak in the MS profile at m/z 328 [M-H]^− with retention time (tR)=8.2 min was derived from Antrodin C (MW 329), and M1 (m/z 331 [M-H]^−, tR=4.4 min) was dicarboxylic acid by hydrolysis of Antrodin C; M2 and M3 (m/z 345 [M-H]^−, tR=7.7 and 8.4 min), which were 14 larger than those of M1, were two kinds of monomethyl esters of M1; M4 (m/z 313 [M-H]^−, tR=21.6 min) was Antrodin A and M5 (m/z 312 [M-H]^−, tR=11.5 min) was Antrodin B. The structures of Antrodin C and its metabolites were shown in FIG. 5.

[2] = system: rat (RIB) or human (HIB) intestinal bacteria; assay: Metabolism of Antrodin C and metabolites by intestinal bacteria in vitro; format: in vitro ADME
Description: Mixtures of rat (RIB) or human (HIB) intestinal bacteria (5 g each) prepared as described (Xie L H, et al. 2003 Biol Pharm Bull 51: 378-384), together with Antrodin C (5 mg) dissolved in Tween 20 (0.5 ml), M1 (5 mg) dissolved in water (1.0 ml) or rat bile samples (10 ml) with metabolites M2-M4, which were collected after oral administration of Antrodin C, were added to GAM broth (50 ml), and anaerobically incubated at 37° C. for 3 d. The incubation mixture was extracted with 3 volumes of acetonitrile, and then passed through a 0.45 μm filter. […] Moreover, the metabolites (M2-M4) in bile samples, which were collected after oral administration of Antrodin C in rats, could absolutely transferred to M1 after 30 min incubation.

[3] = system: hepatitis model induced by LPS; assay: Hepatitis model induced by LPS; conditions: in vivo
LLC cells = conditions: cited from earlier work
[4] = Pharmacokinetics of M1 in rat bile after P.O. and I.V. administration of Antrodin C (PAD-HPLC); conditions: for Accumulated excretion ratio: rat bile
Description: (§1) Male Wistar rats (9 weeks old) purchased from SLC Co. (Hamamastu, Japan), were fed with standard laboratory chow for one week, fasted overnight and given free access to water before drug administration. […] The animals were light anesthetized with diethyl ether during surgical procedures. Bile samples (n=5) was collected by cannulating a polyethylene tube (PE-10) into the rat bile duct at intervals of 0, 0.25, 0.5, 1, 2, 4, 8, 12, 24, 36 and 48 h after oral (50 mg/kg) and intravenous (10 mg/kg) administration of Antrodin C. […] The blood samples were centrifuged at 8000×g for 15 min to separate the plasma, and then all samples were stored at −20° C. for later analysis.
(§2) Thawed urine and bile samples (0.5 ml) dissolved in 3 volumes of acetonitrile, and then centrifuged at 8000×g for 15 min. The supernatant was passed through a 0.45 μm Millipore syringe filter (Nihon Millipore, Tokyo, Japan) for LC/MS-MS analysis. […] After treating the bile sample as described above, the amount of M1 was calculated by PAD-HPLC.
(§3) The concentration-time data in rat bile (n=5) were computer fitted using a program of Pharmacokineitics 3p97 edited by the Mathematics Pharmacological Committee, Chinese Pharmacological Society. The following pharmacokinetic parameters were obtained: half-time of absorption phase (t1/2 (Kα)) and half-time of elimination phase (t1/2 (Kβ)) in the bile samples after oral administration of Antrodin C at the dose of 50 mg/kg. The area under the concentration-time curve (AUC(i.v.) and AUC(p.o.)) was calculated by the statistical moment method of non-compartmental pharmacokinetic analysis. And then clearance (Clm, b) and absolute bioavailability (Fm, b) were calculated by the equations as following: Clm, b (ml/h·kg)=Dose(i.v.)/AUC(i.v.) and Fm, b (%)=AUC(p.o.)·Dose(i.v.)/[AUC(i.v.)·Dose(p.o.)]. Data were expressed mean and standard deviation (S.D.) for each group.

in vivo = conditions: male, Wistar, rat
Description: as §1, §2, §3

[5] = Conversion of metabolites in bile samples diluted with water and incubated at 37° C.; format: physicochemical; conditions: bile diluted by same volume water, 37° C. bath for 12 h
Description: as §2

CC(C)=CCOc1ccc(C2=C(CC(C)C)C(=O)N(O)C2=O)cc1 [Antrodin C]
Metabolites found in feces ([1]; rat feces after administration of Antrodin C): M1-M3, M5 with original Antrodin C
Metabolites found in plasma ([1]; rat plasma after administration of Antrodin C): M1 with another unknown peak
Metabolites found in urine ([1]; rat urine after administration of Antrodin C): neither metabolite nor Antrodin C
Metabolism by intestinal bacteria [2]: converted to M5
Effect against hepatitis model induced by LPS [3]: protective effect
Cytotoxic activity against LLC cells (LLC cells): confirmed
Accumulated excretion ratio ([4]; I.V. 10 mg/kg Antrodin C): 56.85±13.40
Accumulated excretion ratio ([4]; P.O. 50 mg/kg Antrodin C): 5.46±1.62%
Main excretion pathway ([4]; rats): bile-feces pathway

CC(C)=CCOc1ccc(/C(C(=O)O)=C(\CC(C)C)C(=O)O)cc1 [M1, (2Z)-2-isobutyl-3-{4-[(3-methylbut-2-en-1-yl)oxy]-phenyl}but-2-enedioic acid]
Metabolism by intestinal bacteria ([2]; GAM broth, anaerobic incubation at 37° C. for 3 d): not metabolized
bioavailability (in vivo): 19.4%
AUC (in vivo; iv, 10 mg/kg): 1680 µg·h/mL
clearance (in vivo; iv, 10 mg/kg): 5.96 mL/h/kg
AUC (in vivo; po, 50 mg/kg): 1610 µg·h/mL
half-life (in vivo; po, 50 mg/kg, t1/2 (kα), half-time of absorption phase): 0.95 h
half-life (in vivo; po, 50 mg/kg, t1/2 (kβ), half-time of elimination phase): 12.6 h

COC(=O)/C(=C(/CC(C)C)C(=O)O)c1ccc(OCC=C(C)C)cc1 [M2, (2Z)-2-isobutyl-3-{4-[(3-methylbut-2-en-1-yl)oxy]phenyl}but-2-enedioic acid 4-methyl ester]
Conversion in diluted bile [5]: thoroughly converted to M1

COC(=O)/C(CC(C)C)=C(\C(=O)O)c1ccc(OCC=C(C)C)cc1 [M3, (2Z)-2-isobutyl-3-{4-[(3-methylbut-2-en-1-yl)oxy]phenyl}but-2-enedioic acid 1-methyl ester]
Conversion in diluted bile [5]: thoroughly converted to M1

CC(C)=CCOc1ccc(C2=C(CC(C)C)C(=O)OC2=O)cc1 [M4, Antrodin A]
Conversion in diluted bile [5]: thoroughly converted to M1

CC(C)=CCOc1ccc(C2=C(CC(C)C)C(=O)NC2=O)cc1 [M5, Antrodin B]
Cytotoxic activity against LLC cells (LLC cells): confirmed
